# Reference: patent publication US20090022803A1, “Oral Formulations For Delivery of Catecholic Butanes Including Ndga Compounds” (priority 2005, published 2009)
# Read-outs that look alike come from different tables or passages of the source.
# Assay type: physicochemical
# Method: A 10 mL solution of M4N at a concentration of about 10 mg/mL in 40% BP-β-CD was made as follows. About 10 mL of the 40% HP-β-CD solution were added to a glass beaker containing a stir bar. The beaker was placed on a magnetic plate and the stir bar was set to stir at medium speed. About […] of M4N were slowly added to the 40% HP-β-CD in the center of the beaker with the aid of a spatula. The M4N/40% HP-β-CD mixture was stirred for 2 hr or until all M4N was uniformly suspended without any clumps being present. The M4N/40% HP-β-CD mixture was optionally heated at 80° C. for about 30 min. (or longer if a larger volume of solution was desired, for example, 1 hr at 80° C. for 100 mL of the M4N/HP-β-CD mixture), or longer as needed to ensure complete dissolution of M4N. […] The final M4N/40% HP-β-CD solution was stored at room temperature and was kept protected from light. This process may be scaled up or down to obtain the requisite volume or concentration of M4N. Formulations containing M4N in other cyclodextrin solutions may be similarly made, such as, for example, by substituting HP-β-CD in the process described above with other cyclodextrins. […]
# A 10 mL solution of M4N at a concentration of about 10 mg/mL in 50% HP-β-CD/0.5% HPMC was made as follows. About 10 mL of the 50% HP-β-CD/0.5% HPMC solution were added to a glass beaker containing a stir bar. The beaker was placed on a magnetic plate and the stir bar was set to stir at medium speed. About 100 mg of M4N were slowly added to the 50% HP-β-CD/0.5% HPMC in the center of the beaker with the aid of a spatula. The M4N/50% HP-β-CD/0.5% HPMC mixture was stirred for 24 hr or until all M4N was uniformly suspended without any clumps being present. The M4N/50% HP-β-CD/0.5% HPMC mixture was heated at about 90° C. for about 30 min. (or longer if a larger volume of solution was desired, for example, 1 hr at 90° C. for 500 mL of the M4N/50% HP-β-CD/0.5% HPMC mixture), or longer as needed to ensure complete dissolution of M4N. […] The final M4N/50% HP-β-CD/0.5% HPMC solution was stored at room temperature and was kept protected from light.
# A 10 mL solution of M4N at a concentration of about 20 mg/mL in 5% EC (w/v) (the “EC formulation”) was made as follows. About 10 mL of 5% EC formulation, made as described above, were added to a glass beaker containing a stir bar. The beaker was placed on a magnetic plate and the stir bar was set to stir at medium speed, and covered with a round Teflon® cover. About 200 mg of M4N were slowly added to the 5% EC formulation in the center of the beaker with the aid of a spatula to prevent M4N from sticking to the beaker wall. The M4N/EC mixture was stirred for 2 hr or until all M4N had dissolved or was uniformly suspended without any clumps being present. The M4N/EC mixture was heated at about 60° C. for about 30 min. (or longer if a larger volume of solution was desired, for example, 1 hr at 60° C. for 500 mL of the M4N/EC mixture), or longer as needed to ensure complete dissolution of M4N. […] The final M4N/EC solution was stored at room temperature and was kept protected from light.
# A 10 mL solution of M4N at a concentration of about 50 mg/mL in sesame oil was made as follows. About 10 mL of sesame oil were added to a glass beaker containing a stir bar. The beaker was placed on a magnetic plate and the stir bar was set to stir at medium speed. About 500 mg of M4N were slowly added to the sesame oil in the center of the beaker with the aid of a spatula to prevent M4N from sticking to the beaker wall. The M4N/sesame oil mixture was stirred for about 2 hr or until all M4N had dissolved or was uniformly suspended without any clump being present. The M4N/sesame oil mixture was heated at about 60° C. for about 30 min. (or longer if a larger volume of solution was desired, for example, 1 hr at 60° C. for 500 mL of the M4N/sesame oil mixture), or longer as need to ensure complete dissolution of M4N. […]
compound,measurement,setting,value
"COc1ccc(C[C@@H](C)[C@@H](C)Cc2ccc(OC)c(OC)c2)cc1OC [Formulation M4N, meso-1,4-bis(3,4-dimethoxyphenyl)-2,3-dimethylbutane]",Dissolution After Cool-Down,M4N 50 mg/mL in Corn Oil,Y
same,Dissolution After Cool-Down,M4N 50 mg/mL in Mineral Oil,Y
same,Dissolution After Cool-Down,M4N 50 mg/mL in Sesame Oil,Y
same,Dissolution After Cool-Down,M4N 50 mg/mL in Soybean Oil,N
same,Dissolution After Cool-Down,"M4N 52 mg/mL in 40% Peppermint Oil, 40% PEG 400, 20% Glycerol",N
same,Dissolution After Cool-Down,"M4N 59 mg/mL in 45% Peppermint Oil, 45% PEG 400, 10% Glycerol",N
same,Dissolution After Cool-Down,"M4N 60 mg/mL in 0.4% (v/v) Cinnamaldehyde, 5% (w/v) Beeswax, 94.5% (v/v) Olive Oil, cell wraps: Creamy solid",Creamy
same,Dissolution After Cool-Down,"M4N 60 mg/mL in 33% Peppermint Oil, 33% Tween ® 20, 33% PEG 400",Y
same,Dissolution After Rotation,"M4N 60 mg/mL in 50% HP-β-CD, 0.5% CMC",Suspension
same,Dissolution After Cool-Down,"M4N 60 mg/mL in 50% Peppermint Oil, 50% PEG 300",Y
same,Dissolution After Cool-Down,"M4N 60 mg/mL in 50% Peppermint Oil, 50% PEG 400",Y
same,Dissolution After Cool-Down,"M4N 60 mg/mL in 50% Peppermint Oil, 50% Sesame Oil",Y
same,Dissolution After Cool-Down,"M4N 60 mg/mL in 50% Peppermint Oil, 50% Tween ® 20",Y
same,Dissolution After Cool-Down,"M4N 60 mg/mL in 60% Peppermint Oil, 40% PEG 300",Y
same,Dissolution After Cool-Down,"M4N 60 mg/mL in 60% Peppermint Oil, 40% PEG 400",N
same,Dissolution After Cool-Down,"M4N 60 mg/mL in 80% Olive Oil, 20% Soybean Oil",N
same,Dissolution After Cool-Down,"M4N 60 mg/mL in 85% Sesame Oil, 15% Tween ® 20",N
same,Dissolution After Cool-Down,M4N 60 mg/mL in Corn Oil,Y
same,Dissolution After Cool-Down,M4N 60 mg/mL in Peppermint Oil,Y
same,Dissolution After Cool-Down,"M4N 100 mg/g in 50% Soybean Oil, 50% Beeswax (w/w), cell wraps: waxy solid",waxy
same,Dissolution After Rotation,M4N 100 mg/mL in 2.3% HPMC,N
same,Dissolution After Cool-Down,M4N 100 mg/mL in 5% EC in EtOH,N
same,Dissolution After Rotation,M4N 100 mg/mL in 5% EC in EtOH,N
same,Dissolution After Rotation,M4N 100 mg/mL in 15% α-CD,N
same,Dissolution After Heating at X° C.,"M4N 100 mg/mL in 15% α-CD, 90°",N at 90°
same,Dissolution After Rotation,M4N 100 mg/mL in 30% HP-β-CD,N
same,Dissolution After Heating at X° C.,"M4N 100 mg/mL in 30% HP-β-CD, 90°",N at 90°
same,Dissolution After Rotation,M4N 100 mg/mL in 40% HP-β-CD,N
same,Dissolution After Heating at X° C.,"M4N 100 mg/mL in 40% HP-β-CD, 80°",N at 80°
same,Dissolution After Rotation,M4N 100 mg/mL in 50% HP-β-CD,N
same,Dissolution After Heating at X° C.,"M4N 100 mg/mL in 50% HP-β-CD, 90°",N at 90°
same,Dissolution After Cool-Down,"M4N 100 mg/mL in 50% Peppermint Oil, 50% PEG 400",N
same,Dissolution After Cool-Down,"M4N 100 mg/mL in Camillia Oil, cell wraps: Creamy solid",Creamy
same,Dissolution After Cool-Down,M4N 100 mg/mL in Corn Oil,N
same,Dissolution After Cool-Down,"M4N 100 mg/mL in Eugenol, Beeswax, Olive Oil, 0.5% (v/v) Eugenol, cell wraps: Creamy solid",Creamy
same,Dissolution After Cool-Down,M4N 100 mg/mL in Mineral Oil,N
same,Dissolution After Cool-Down,M4N 100 mg/mL in Peppermint Oil,Y
same,Dissolution After Cool-Down,"M4N 125 mg/mL in 50% Peppermint Oil, 50% PEG 300",N
same,Dissolution After Cool-Down,"M4N 125 mg/mL in 50% Peppermint Oil, 50% PEG 400",N
same,Dissolution After Cool-Down,"M4N 125 mg/mL in 50% Peppermint Oil, 50% Tween ® 20",N
same,Dissolution After Cool-Down,M4N 125 mg/mL in Peppermint Oil,Y
same,Dissolution After Rotation,"M4N 150 mg/g in 84% HP-β-CD, 1% HPMC, Lyophilized",powder
same,Dissolution After Rotation,"M4N 185 mg/g in 81.5% (w/w) HP-β-CD, Lyophilized",powder
same,Dissolution After Cool-Down,"M4N 200 mg/g in 75% Soybean Oil, 25% Beeswax (w/w), cell wraps: waxy solid",waxy
same,Dissolution After Cool-Down,"M4N 200 mg/g in 90% Olive Oil, 10% Beeswax (w/w), cell wraps: waxy solid",waxy
same,Dissolution After Cool-Down,"M4N 200 mg/g in 90% Soybean Oil, 10% Beeswax (w/w), cell wraps: waxy solid",waxy
same,Dissolution After Cool-Down,"M4N 200 mg/g in 95% Olive Oil, 5% Beeswax (w/w), cell wraps: waxy solid",waxy
same,Dissolution After Cool-Down,"M4N 200 mg/g in 95% Soybean Oil, 5% Beeswax (w/w), cell wraps: waxy solid",waxy
same,Dissolution After Cool-Down,M4N 200 mg/mL in Mineral Oil,N
same,Dissolution After Cool-Down,"PEG 300 100%, M4N 25 mg/mL, after heating at 50° C.",Y
same,Dissolution After Cool-Down,"PEG 400 100%, M4N 25 mg/mL, after heating at 50° C.",Y
same,Dissolution After Cool-Down,"PEG 400 100%, M4N 30 mg/mL, after heating at 50° C.",Y
same,Dissolution After Cool-Down,"PEG 400 100%, M4N 40 mg/mL, after heating at 50° C.",Y
same,Dissolution After Cool-Down,"PEG 400 100%, M4N 50 mg/mL, after heating at 60° C.",Y
same,Dissolution After Cool-Down,"PEG 400 100%, M4N 100 mg/mL, after heating at 60° C.",N
same,Dissolution After Cool-Down,"PEG 400 mono-laurate 100%, M4N 20 mg/mL, after heating at 50° C.",Y
same,Dissolution After Cool-Down,"PEG 400 mono-laurate 100%, M4N 50 mg/mL, after heating at 50° C.",Y
same,Dissolution After Cool-Down,"Propylene Glycol 100% (w/v), M4N 1 mg/mL, after heating at 55° C.",Y
same,Dissolution After Cool-Down,"Propylene Glycol 100% (w/v), M4N 10 mg/mL, after heating at 55° C.",Y
same,Dissolution After Cool-Down,"Propylene Glycol 100% (w/v), M4N 20 mg/mL, after heating at 55° C.",Y
